Values of other authors as cited in US20170290285A1, “HIGH REBAUDIOSIDE-C PLANT VARIETAL AND COMPOSITIONS EXTRACTED THEREFROM WITH HIGH REBAUDIOSIDE-C AND TOTAL STEVIOL GLYCOSIDE CONTENT” (GLG Life Tech Corporation, priority 2014, published 2017).
Each block holds one compound with its values, some of them ahead of it.

Legend:
[1] = for Relative sweetness: Table 1
[2] = heating at high temperature, cooking or barbecuing

Compound: C[C@H](CC[C@@H](O[C@@H]1O[C@H](CO[C@@H]2O[C@H](CO)[C@@H](O)[C@H](O)[C@H]2O)[C@@H](O)[C@H](O)[C@H]1O[C@@H]1O[C@H](CO)[C@@H](O)[C@H](O)[C@H]1O)C(C)(C)O)[C@H]1CC[C@@]2(C)[C@@H]3CC=C4[C@@H](CC[C@H](O[C@@H]5O[C@H](CO[C@@H]6O[C@H](CO)[C@@H](O)[C@H](O)[C@H]6O)[C@@H](O)[C@H](O)[C@H]5O)C4(C)C)[C@]3(C)[C@H](O)C[C@]12C [Mogroside V]
sweetness, times that of sugar ([1]; versus sugar, b159): about 300 times | effect of heating on flavor [2]: does not affect the flavor

Compound: Rubusoside
Relative sweetness [1]: 110

Compound: Rebaudioside C
sweetness, × of sugar ([1]; versus sugar, list b13-b15): 150-200 × of sugar

Solubility in water, %: 0.03%
Compound: C=C1C[C@@]23CC[C@H]4[C@@](C)(CCC[C@@]4(C)C(=O)[O-])[C@@H]2CC[C@]1(O[C@@H]1O[C@@H](CO)[C@@H](O)[C@H](O)[C@@H]1O[C@@H]1O[C@@H](CO)[C@@H](O)[C@H](O)[C@@H]1O)C3.[Na+] [Stevlolbioside]
Relative sweetness [1]: 90
